Data taken from patent publication US10294228B2, “Breathing control modulating compounds, and methods of making and using same” (NEURAD LTD., priority 2015, dated 2019).
Counter-ions that a name gives are not always drawn.

Test system: anesthetized rats
Experiment: Anesthetized rat spirometry screening assay (ventilatory activity, minute volume)
Format: in vivo
Details: increase in minute volume (VE); for change in vivo at 0.3 mg/kg: 0.3 mg/kg IV bolus, read-out: VE % Inc @ 0.3 mg/kg IV; for change in vivo at 3 mg/kg: 3.0 mg/kg IV bolus, read-out: VE % Inc @ 3.0 mg/kg IV
Procedure, shortened: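 Urethane-anesthetized (1.5 g/kg i.v.) rats with tracheal cannula to pneumotachometer; minute volume derived from respiratory rate × tidal volume. Compounds given as i.v. bolus at 0.1 and/or 0.3 and/or 3 mg/kg, monitored at least 6 min; data as 30 s averages.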

Row | Structure (SMILES) | change in vivo at 0.3 mg/kg [%] | change in vivo at 3 mg/kg [%]
1 | CCCNc1nc(NC)nc2c(NC(C)(C)CO)nc(NC)nc12 [Compound 16a, 2-(2,6-Bis-methylamino-8-propylamino-pyrimido[5,4-d]-pyrimidin-4-ylamino)-2-methyl-propan-1-ol hydrochloride] | 80 | –
2 | CCCNc1nc(NC)nc2c(N[C@@H]3CCCC[C@@H]3O)nc(NC)nc12 [Compound 84, (1S,2R)-2-(2,6-Bis-methylamino-8-propylamino-pyrimido[5,4-d]pyrimidin-4-ylamino)-cyclohexanol] | 169 | 184
3 | C=C(C)CNc1nc(NC)c2nc(NC[C@@H](C)O)nc(NC)c2n1 [Compound 158, (R)-1-[6-(2-Methyl-allylamino)-4,8-bis-methylamino-pyrimido[5,4-d]-pyrimidin-2-ylamino]-propan-2-ol] | 68 | 120
4 | CCCNc1nc(NC)c2nc(NCC(C)O)nc(NC)c2n1 (centres unmarked) [Compound 95, 1-(4,8-Bis-methylamino-6-propylamino-pyrimido[5,4-d]-pyrimidin-2-ylamino)-propan-2-ol] | 138 | –
5 | CCCNc1nc(NC)nc2c(NCCCO)nc(NC)nc12 [Compound 8a, 3-(2,6-Bis-methylamino-8-propylamino-pyrimido[5,4-d]pyrimidin-4-ylamino)-propan-1-ol hydrochloride] | 31 | –
6 | CNc1nc(NCC(C)(C)O)c2nc(NC)nc(NCc3ncccn3)c2n1 [Compound 38a, 1-{2,6-Bis-methylamino-8-[(pyrimidin-2-ylmethyl)-amino]-pyrimido[5,4-d]pyrimidin-4-ylamino}-2-methyl-propan-2-ol Hydrochloride] | 18 | 27
7 | CCCNc1nc(NC)nc2c(NCC(O)(CC)CC)nc(NC)nc12 [Compound 74a, 3-[(2,6-Bis-methylamino-8-propylamino-pyrimido[5,4-d]pyrimidin-4-ylamino)-methyl]-pentan-3-ol Hydrochloride] | 153 | 208
8 | CC[C@@H](C)Nc1nc(NC)c2nc(NC[C@@H](C)O)nc(NC)c2n1 [Compound 100, (R)-1-[6-((R)-sec-Butylamino)-4,8-bis-methylamino-pyrimido[5,4-d]pyrimidin-2-ylamino]-propan-2-ol] | 33 | 139
9 | CCCNc1nc(NC)nc2c(NC[C@H](C)O)nc(NC)nc12 [Compound 12a, (S)-1-(2,6-Bis-methylamino-8-propylamino-pyrimido[5,4-d]pyrimidin-4-ylamino)-propan-2-ol hydrochloride] | 114 | –
10 | C=CCNc1nc(NC)c2nc(NC[C@H](C)O)nc(NC)c2n1 [Compound 143, (S)-1-(6-Allylamino-4,8-bis-methylamino-pyrimido[5,4-d]pyrimidin-2-ylamino)-propan-2-ol] | 81 | 150
11 | CC[C@H](C)Nc1nc(NC)c2nc(NCC(C)(C)O)nc(NC)c2n1 [Compound 103, 1-[6-((S)-sec-Butylamino)-4,8-bis-methylamino-pyrimido[5,4-d]-pyrimidin-2-ylamino]-2-methyl-propan-2-ol] | 5 | 99
12 | CCCNc1nc(NC)nc2c(N[C@@H]3c4ccccc4C[C@H]3O)nc(NC)nc12 [Compound 80, (1R,2R)-1-(2,6-Bis-methylamino-8-propylamino-pyrimido[5,4-d]-pyrimidin-4-ylamino)-indan-2-ol] | 71 | 95
13 | CCCNc1nc(NCC)c2nc(NCC(C)(C)O)nc(NCC)c2n1 [Compound 163, 1-(4,8-Bis-ethylamino-6-propylamino-pyrimido[5,4-d]pyrimidin-2-ylamino)-2-methyl-propan-2-ol] | 88 | 144
14 | CCCNc1nc(NC)nc2c(N(C)CCO)nc(NC)nc12 [Compound 6a, 2-[(2,6-Bis-methylamino-8-propylamino-pyrimido[5,4-d]pyrimidin-4-yl)-methyl-amino]-ethanol hydrochloride] | 37 | –
